IC50, cell survival and CC50 data for 13 compounds are collected here from paper PMC10606488, “Usnic Acid Derivatives Inhibit DNA Repair Enzymes Tyrosyl-DNA Phosphodiesterases 1 and 2 and Act as Potential Anticancer Agents” (Genes, 2023).

SMILES strings stand for the structures. Like-named read-outs stand apart in the source and are kept apart here.

Data set [1] deals with T1, Recombinant human Tdp2 (Homo sapiens, UniProt O95551).
T1 construct: made in house
T1 sequence (O95551 1-362): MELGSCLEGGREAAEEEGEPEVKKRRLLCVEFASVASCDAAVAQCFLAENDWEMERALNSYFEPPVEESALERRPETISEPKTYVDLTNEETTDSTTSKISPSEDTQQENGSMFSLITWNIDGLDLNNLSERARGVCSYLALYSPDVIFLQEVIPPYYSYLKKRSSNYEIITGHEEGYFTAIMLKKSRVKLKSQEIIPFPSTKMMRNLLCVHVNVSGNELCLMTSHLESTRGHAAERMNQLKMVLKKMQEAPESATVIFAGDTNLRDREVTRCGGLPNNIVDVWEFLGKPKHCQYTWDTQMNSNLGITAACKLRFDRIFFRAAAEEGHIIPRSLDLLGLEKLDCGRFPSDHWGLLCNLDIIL
Put plainly: Gel-based Tdp2 activity assay. The class given is biochemical.

Data set [2] concerns purified recombinant human Tdp1. The settings on record: cited from earlier work.
In a further data set the test system is HEK293FT wild-type cells. Put plainly: Intrinsic cytotoxicity, MTT test, wild-type cells. The class given is cell-based, human. The settings on record: 10 μM compound, 3 days. As for the experimental part: (§1) The intrinsic cytotoxicity of the compounds was examined against cell line HEK293FT (human embryonic kidney) with a standard MTT test. The cells were grown in DMEM-F12 medium, with 50 IU/mL penicillin and 50 µg/mL streptomycin (Thermo Fisher Scientific, Waltham, MA, USA) in the presence of 10% fetal bovine serum (Biolot, Saint-Petersburg, Russia) in 5% CO2 atmosphere. Tested compounds were added after formation of a 30–50% monolayer to the medium (1:100 added reagents to the total volume of the culture medium, thus the final concentration of DMSO was 1%) and the cell culture was monitored for 3 days. Control cells were grown in the presence of 1% DMSO. The measurements of cytotoxicity were carried out in three repeats.
Since Tdp inhibitors are intended to be used in therapeutic cocktails, non-toxic concentrations of the compounds are required so as not to exacerbate the already serious side effects of therapy. We studied the intrinsic cytotoxicity of the compounds, (−)-11a,d,h, that inhibited Tdp2 on HEK293FT wild-type cells and Tdp2 knockout (Tdp2^−/−) cells (Figure 3). Tdp2 knockout HEK293FT cells were obtained using the CRISPR/Cas9 method. At 10 μM concentration, the cell survival was not less than 80% for both types of cells. This concentration was chosen for further studies of the ability of the compounds to sensitize the effect of the Top2 inhibitor etoposide.
In general terms: Tetrazolium assays rely on reduction of a dye to a coloured formazan, in cell work by metabolically active cells.

The next data set concerns HEK293FT Tdp2−/− cells. The data set is described as follows: Intrinsic cytotoxicity, MTT test, Tdp2 knockout cells. The class given is cell-based, human. The settings on record: 10 μM compound, 3 days. The method, then: as §1
We performed a selection of protospacers for human Tdp2 gene knockout with the Benchling CRISPR tool (https://www.benchling.com/) (accessed on 13 February 2020). Two 20-nt protospacer sequences were selected for deletion of exon 6 (PAM sequences in brackets) of the human Tdp2 gene (NM_016614.3): Tdp2-gRNA1 […](AGG) and Tdp2-gRNA2 […](TGG). The scheme of protospacers in the Tdp2 gene is shown on Figure S9A in the Supplementary Materials. Oligonucleotides were cloned in a pSpCas9(BB)-2A-GFP (PX458) plasmid that was a kind gift from Dr. Feng Zhang (Addgene plasmid #48138; http://n2t.net/addgene:48138 (accessed on 13 February 2020), RRID:Addgene_48138) as previously described. Transfection-grade DNA plasmids were isolated with the Plasmid Plus Midi Kit (QIAGEN, Hilden, Germany).
We transfected HEK293FT cells with the constructed plasmids (0.25 µg of each) pX458-Tdp2-gRNA1 and pX458-Tdp2-gRNA2 using Lipofectamine 3000 Reagent (Thermofisher Scientific, Waltham, MA, USA). We used growth medium containing DMEM/F12 (Thermofisher Scientific, MA, USA) 1:1, 10% fetal bovine serum (Thermofisher Scientific, MA, USA), 100 U/mL penicillin–streptomycin (Thermofisher Scientific, MA, USA), and GlutaMAX (1×) (Thermofisher Scientific, Waltham, MA, USA). […]

Data set [3] has as its target tyrosyl-DNA phosphodiesterase 2. To be noted: Figure 2; read-out: IC50 (Tdp2); cited from earlier work.
For data set [4], the target named is T1, Recombinant human Tdp2. Set-up: method as in PMID 34768766, PMID 35011303. The settings on record: Figure 2; cited from earlier work.
Data set [5] is described as follows: Effect of compounds on the cytotoxicity of etoposide, Tdp2 knockout cells. The class given is cell-based. The settings on record: human, HEK293FT Tdp2 knockout (Tdp2−/−) cells, with vehicle (DMSO 1%). As for the experimental part:
as §1
(§2) Different concentrations of etoposide and fixed concentrations of usnic acid derivatives 10 μM were used to evaluate the effect of the tested compounds on the cytotoxicity of etoposide.
We performed a selection of protospacers for human Tdp2 gene knockout with the Benchling CRISPR tool (https://www.benchling.com/) (accessed on 13 February 2020). […]
We studied the effect of Tdp2 inhibitors on the cytotoxic effect of etoposide. The CC50 for etoposide was measured in the presence and absence of compounds. […] The significance of the differences between the metabolic activity of WT and Tdp2^−/− cells was assessed using the Mann–Whitney test. […]

Data set [6] in a line: Effect of compounds on the cytotoxicity of etoposide, wild-type cells. The class given is cell-based. To be noted: human, HEK293FT wild-type cells; with vehicle (DMSO 1%), HEK293FT WT. As for the experimental part:
as §1, §2
We studied the effect of Tdp2 inhibitors on the cytotoxic effect of etoposide. The CC50 for etoposide was measured in the presence and absence of compounds. The sensitivity to etoposide in Tdp2 knockout cells was close to wild-type cells (Figure 4a). […] The significance of the differences between the metabolic activity of WT and Tdp2^−/− cells was assessed using the Mann–Whitney test. […]

Setting [7] is: (+)-usnic acid derivatives, read-out: Tdp1 IC50.
Where [8] appears, read: (−)-usnic acid derivatives, read-out: Tdp1 IC50.
Setting [9] is: Figure 1, read-out: IC50 (Tdp1).
Setting [10] is: Figure 2, read-out: IC50 (Tdp1).

Take `CC(=O)C1=C(O)C=C2Oc3c(-c4csc(NN=Cc5ccc[nH]5)n4)c(O)c(C)c(O)c3C2(C)C1=O` (single isomer, unassigned; (+)) [(+)-11a]: the IC50 (in general, the midpoint of a concentration-inhibition curve) was above 50 µM at Recombinant human Tdp2 [1] ((+)-usnic acid derivatives) and 0.188 ± 0.003 µM in data set [2] (setting [7]).

Take `CC(=O)C1=C(O)C=C2Oc3c(-c4csc(NN=Cc5c[nH]c6ccccc56)n4)c(O)c(C)c(O)c3C2(C)C1=O` (single isomer, unassigned; (+)) [(+)-11d]: the IC50 is above 50 µM on Recombinant human Tdp2 [1] ((+)-usnic acid derivatives) and 0.026 ± 0.006 µM in data set [2] (setting [7]).

Regarding `COc1ccc(C=NNc2nc(-c3c(O)c(C)c(O)c4c3OC3=CC(O)=C(C(C)=O)C(=O)C34C)cs2)cc1CN1CCN(c2ccc(F)cc2)CC1` (single isomer, unassigned; (+)) [(+)-11h], the IC50 at Recombinant human Tdp2 [1] ((+)-usnic acid derivatives) is above 50 µM; in data set [2] (setting [7]), 0.08 ± 0.007 µM.

On to `CC(=O)C1=C(O)C=C2Oc3c(-c4csc(NN=Cc5ccc[nH]5)n4)c(O)c(C)c(O)c3C2(C)C1=O` (single isomer, unassigned; (-)) [(−)-11a], for which the cell survival entry in the data set with HEK293FT wild-type cells and in the data set with HEK293FT Tdp2−/− cells was “not less than 80%” in each case. Moreover, the IC50 on Recombinant human Tdp2 [1] ((−)-usnic acid derivatives) is 8 ± 4 µM; in data set [2] (setting [8]), 0.018 ± 0.001 µM.

Turning to `CC(=O)C1=C(O)C=C2Oc3c(-c4csc(NN=Cc5c[nH]c6ccccc56)n4)c(O)c(C)c(O)c3C2(C)C1=O` (single isomer, unassigned; (-)) [(−)-11d], the cell survival result with HEK293FT wild-type cells and with HEK293FT Tdp2−/− cells was “not less than 80%” each time. In addition, the IC50 was 6 ± 3 µM at Recombinant human Tdp2 [1] ((−)-usnic acid derivatives) and 0.057 ± 0.001 µM in data set [2] (setting [8]).

In the case of `COc1ccc(C=NNc2nc(-c3c(O)c(C)c(O)c4c3OC3=CC(O)=C(C(C)=O)C(=O)C34C)cs2)cc1CN1CCN(c2ccc(F)cc2)CC1` (single isomer, unassigned; (-)) [(−)-11h], the cell survival entry in the data set with HEK293FT wild-type cells and in the data set with HEK293FT Tdp2−/− cells was “not less than 80%” in each case. Moreover, the IC50 on Recombinant human Tdp2 [1] ((−)-usnic acid derivatives) is 9 ± 1 µM; in data set [2] (setting [8]) it was 0.059 ± 0.005 µM.

Regarding `CC(C)=CCC/C(C)=C/COc1ccc2c(-c3ccc(I)cc3)cc(=O)oc2c1` [compound 2, reference compound], in data set [2] (setting [9]), the IC50 is 0.62 µM.

Take `CC(=O)c1c(O)c(C)c(O)c2c1OC1=CC(=O)/C(=C(/C)NCCCc3cc(C(C)(C)C)c(O)c(C(C)(C)C)c3)C(=O)[C@@]12C` [compound 3, reference compound]: in data set [2] (setting [9]), the IC50 was 0.16 µM.

With `CC(=O)C1=C(O)C=C2Oc3c(-c4csc(N/N=C/c5ccc(Br)cc5)n4)c(O)c(C)c(O)c3[C@@]2(C)C1=O` [compound 4, reference compound], the IC50 in data set [2] (setting [9]) is 0.026 µM.

`NC1=CC(N)=C2C=CC(=O)N=C2C1=O` [compound 6]: the IC50 in data set [3] is 1.7 µM.

As for `CC(=O)C1=C(O)C=C2Oc3c(C(=O)CSC4=NCCS4)c(O)c(C)c(O)c3[C@@]2(C)C1=O` [compound 7, reference compound], the IC50 is around 1000 µM at Recombinant human Tdp2 [4] and 4.4 µM in data set [2] (setting [10]).

For the compound `C[C@H](CCC(=O)NCCc1c[nH]c2ccccc12)[C@H]1CCC2C3CCC4C[C@H](OCc5ccccc5)CC[C@]4(C)C3C[C@H](O)[C@@]21C` (stereo partly shown) [compound 8, reference compound], the IC50 is around 1000 µM on Recombinant human Tdp2 [4] and 0.24 µM in data set [2] (setting [10]).

Regarding `COc1cc([C@@H]2c3cc4c(cc3[C@@H](O[C@@H]3O[C@@H]5CO[C@@H](C)O[C@H]5[C@H](O)[C@H]3O)[C@H]3COC(=O)[C@H]23)OCO4)cc(OC)c1O` [etoposide], the CC50 (as a rule, the concentration at which the toxic effect on the cells reaches its halfway point) at 3 days in data set [5] stood at 2.3 µM; in data set [6], 2.4 µM.
